Experimental data from PubChem BioAssay (NCI).
“And” between values parts separate entries of the source, which are not always exact repeats. Equal entries are not always repeated.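 Assay format: 96-well plates, 48-hour exposure. GI50 is the concentration that inhibits growth by half. At the TGI there is no net growth.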

Key:
Experiment in all cases: inhibition of tumour cell growth, NCI panel, 48 h
NCI-H226 lung = test system: NCI-H226 lung
MDA-MB-435 = test system: MDA-MB-435
U251 CNS = test system: U251 CNS
HS 578T breast = test system: HS 578T breast
HL-60(TB) leukemia = test system: HL-60(TB) leukemia

SMILES | GI50 (NCI-H226 lung) | TGI (NCI-H226 lung) | GI50 (MDA-MB-435) | TGI (MDA-MB-435) | GI50 (U251 CNS) | TGI (U251 CNS) [µM] | GI50 (HS 578T breast) | TGI (HS 578T breast) [µM] | GI50 (HL-60(TB) leukemia) | TGI (HL-60(TB) leukemia)
O=C1/C(=C/c2ccc([N+](=O)[O-])s2)Oc2ccc(Br)cc21 | 1.14 µM | 2.84 µM | 0.397 µM | 1.78 µM | 0.211 µM | 0.482 | 0.448 µM | > 100 | 0.487 µM | 7.5 µM
CCOC(=O)c1c(C)n(Cc2ccc(Cl)cc2Cl)c2c1cc(O)c1[nH]c(Cc3ccccc3)nc12 | 14 µM | 30.9 µM | 5.86 µM | 24.7 µM | 3.41 µM | 12.1 | 1.53 µM | 3.8 | 2.27 µM | 5.38 µM
CC(C)(C)c1ccc(OCCCCCCCN2CCNCC2)cc1 | 1.86 µM | 4.1 µM | 1.57 µM | 2.98 µM | 1.51 µM | 3.05 | 1.92 µM | 4.77 | 1.45 µM | 3.3 µM
COc1cccc(C2=C(c3cn(C)c4c(C)cccc34)C(=O)NC2=O)c1 | 19.4 µM | > 25 µM | 18.2 µM | > 25 µM | 14.9 µM | > 25 | 5.93 µM | > 25 | > 25 µM | > 25 µM
N#C/C(=C\c1ccccn1)c1nc2ccccc2o1 | 39.3 µM | > 100 µM | 34.6 µM | > 100 µM | 21.5 µM | 49.8 | 35.1 µM | > 100 | 15.3 µM | 76.2 µM
Cc1cc(N)c2cc(NC(=O)/C=C\c3ccccc3Cl)ccc2n1 | 2.01 µM | 3.69 µM | 1.15 µM | 2.52 µM | 0.269 µM | 0.724 | 1.82 µM | 3.88 | 1.67 µM | 3.31 µM
O=C1c2ccccc2-n2c1nc1ccc([N+](=O)[O-])cc1c2=O |  | > 100 µM |  |  |  | > 100 |  | > 100 |  | 43.5 µM
CCc1n(Cc2ccc3ccccc3c2)cc[n+]1Cc1ccc2ccccc2c1 | 1.08 µM | 3.82 µM | 0.424 µM | 1.57 µM | 0.578 µM | 2.2 | 1.5 µM | 5.62 | 0.249 µM | 1.17 µM
CCOC(=O)c1nc2sc(Cl)cn2c1/C=N/N=C(N)N | 26.3 µM | > 55.1 µM | 25.3 µM | > 58.2 µM | 23.6 µM | > 53.9 | 19.1 µM | 74.5 | 26.1 µM | > 100 µM
O=C1CC[C@@H]2[C@H]3CCC(=O)c4c3c(c3cccc(O)c3c4O)O[C@@]23C(=O)c2cccc(O)c2C(O)=C13 | > 100 µM | > 100 µM |  |  | > 100 µM | > 100 | > 100 µM | > 100 | > 100 µM | > 100 µM
O=c1oc2cc(O)ccc2cc1-c1nc2ccccc2o1 |  | > 100 µM |  | > 100 µM |  | 93.5 |  | > 100 |  | 70.6 µM
Cc1nc2sc(C(=O)Nc3cccc4c3OCCO4)c(N)c2cc1C(C)O (configuration not stated) | > 100 µM | > 100 µM | 0.454 µM | 3.54 µM | 4.66 µM | > 100 | 3.07 µM | > 100 | 2.99 µM | 13 µM
C=CC(=O)N1CCN(c2nc(OC[C@@H]3CCCN3C)nc3c(F)c(-c4nc(N)cc(C)c4C(F)(F)F)c(Cl)cc23)[C@@H](C)C1 | 1.88 µM | 4.52 µM | 2.09 µM | 4.65 µM | 1.96 µM | 5.05 | 1.83 µM | 4.53 | 2.91 µM | > 100 µM
CN(C)Cc1nsc(N(C)C)n1 |  | > 100 µM |  | > 100 µM |  | > 100 |  | > 100 |  | 
Cc1nc2ccccc2c(/C=C/c2ccc(C(F)(F)F)cc2)c1C(=O)/C=C/c1ccccc1 | 1.6 µM | 3.14 µM |  |  | 1.47 µM | 2.92 | 1.92 µM | 5.75 | 1.94 µM | 4.44 µM
CC(=O)OC1C(C)OC(Oc2c(-c3ccc(O)cc3)oc3cc(O)cc(O)c3c2=O)C(O)C1OC(C)=O (configuration not stated) | 36.9 µM | > 100 µM | 27.2 µM | > 75.4 µM | 32.1 µM | > 100 | 24.9 µM | 82.4 | 23.9 µM | 61.3 µM
COc1cccc2c1C(=O)c1c(O)c3c(c(O)c1C2=O)C[C@@](O)(C(=O)CO)C[C@@H]3OC1CC2C(OCN2CN2COC3C(C)OC(O[C@H]4C[C@](O)(C(=O)CO)Cc5c(O)c6c(c(O)c54)C(=O)c4c(OC)cccc4C6=O)CC32)C(C)O1 (some centres not stated) | 0.00981 µM | 0.0584 µM | 0.013 µM | 0.0391 µM | 0.00291 µM | 0.0979 | 0.0394 µM | > 1 | 0.000329 µM | 

SMILES | GI50 (NCI-H226 lung) | TGI (NCI-H226 lung) | GI50 (MDA-MB-435) | TGI (MDA-MB-435) | GI50 (U251 CNS) | TGI (U251 CNS) [µM] | GI50 (HS 578T breast) | TGI (HS 578T breast) [µM] | GI50 (HL-60(TB) leukemia) | TGI (HL-60(TB) leukemia)
CN(COC(=O)C(C)(C)C)c1nc(N(C)COC(=O)C(C)(C)C)nc(N(C)COC(=O)C(C)(C)C)n1 |  | > 100 µM |  |  |  |  |  | > 100 |  | 63.6 µM
CCOC(=O)CCC(NC(=O)c1ccc(Oc2nc3cc(N)cc(N)c3nc2-c2ccccc2)cc1)C(=O)OCC (configuration not stated) | 2.94 µM | 25 µM | 30.2 µM | > 100 µM | > 100 µM | > 100 | 43.7 µM | > 100 | 31.5 µM | 95 µM
Nc1ncnc2c1ncn2C1OC(F)(COS(N)(=O)=O)C(O)C1O (configuration not stated) | > 100 µM | > 100 µM | > 100 µM | > 100 µM | > 100 µM | > 100 | > 100 µM | > 100 | > 100 µM | > 100 µM
Cc1ccc(-c2csc3ncnc(Nc4cccc(O)c4)c23)cc1 | 38.1 µM | > 100 µM | 16.7 µM | 33.6 µM | 22.5 µM | 58.6 | 36.5 µM | > 100 | 18.2 µM | 51.5 µM
Cc1ccc(S(=O)(=O)NC(=O)Nc2ncn[nH]2)cc1 |  | > 100 µM |  | > 100 µM |  | > 100 |  | > 100 |  | > 100 µM
O=C(Nc1ccc(Br)cc1)c1cc(Br)ccc1O | 0.747 µM and 0.729 µM | 4.52 µM and 4.03 µM | 0.43 µM and 1.38 µM | 3.23 µM and 5.66 µM | 0.417 µM and 0.682 µM | > 100 | 0.302 µM and 0.455 µM | 2.94 | 0.408 µM and 1.12 µM | 4.54 µM and 3.8 µM
COc1ccc(C(=O)c2no[n+]([O-])c2C(=O)c2ccc(OC)cc2)cc1 | 25.8 µM | > 64.3 µM | 6.72 µM | 22.9 µM | 2.53 µM | 7.07 | 17.8 µM | 51.4 | 2.08 µM | 4.37 µM
O=C(N/N=C/c1coc2ccc(Cl)cc2c1=O)c1cc(O)c(O)c(O)c1 | 26.1 µM | 68.4 µM | 27.2 µM | 66.7 µM | 22.2 µM | 57.2 | 18.3 µM | 73.3 |  | 
C=CCC(NCc1ccccc1)c1cn(C(=O)OCC)c2ccccc12 (configuration not stated) |  |  | 20.2 µM | 45.9 µM | 19.2 µM | 39.3 | 20 µM | 63.8 |  | 
O=C1OC(=O)c2c1cc1cc3c(cc1c2-c1ccc2c(c1)OCO2)OCO3 |  | > 100 µM |  | > 100 µM |  | > 100 |  |  |  | > 100 µM
O=[N+]([O-])c1cc2c(ccc3ccccc32)o1 | 1.27 µM | 4.22 µM | 0.158 µM | 0.35 µM | 0.835 µM | 5.62 | 1.4 µM | 5.28 | 0.331 µM | 4.52 µM
C[C@H]1CCC/C=C/[C@@H]2C[C@H](O)C[C@H]2[C@H](O)C(O)C(O)C(=O)O1 (some centres not stated) | 0.189 µM | 0.399 µM | 3.74 µM | > 100 µM | 3.51 µM | > 100 | 0.702 µM | > 100 | 0.251 µM | 2.31 µM
O=C1c2c[n+](Cc3ccccc3)ccc2-c2nc3ccccc3c3ccnc1c23 | 0.537 µM | 3.07 µM | 0.434 µM | 0.972 µM | 0.541 µM | 1.64 | 1.03 µM | 10.2 | 0.72 µM | 1.93 µM
COc1cc2c(cc1OCCCN1CCN(CCCOc3cc4c(cc3OC)C(=O)N3C[C@H](F)C[C@H]3C=N4)CC1)N=C[C@@H]1C[C@@H](F)CN1C2=O |  |  | 0.105 µM | 0.288 µM |  |  | 0.0841 µM | 2.56 | < 0.045 µM | 0.797 µM
Cc1nc2ccccc2c(/C=C/c2ccc(F)cc2)c1C(=O)/C=C/c1ccccc1 | 1.85 µM | 4.16 µM | 2.94 µM | 12.2 µM | 1.74 µM | 3.18 | 5.15 µM | > 100 | 2.55 µM | 6.93 µM
CC(C)OC(=O)NNc1c(Cl)cc(Cl)cc1Cl |  |  |  | > 100 µM |  | > 100 |  | > 100 |  | > 100 µM
COC(=O)c1cc2c3cc(Cl)ccc3[nH]c2c2ncccc12 | > 100 µM | > 100 µM | > 100 µM | > 100 µM | > 100 µM | > 100 |  |  | > 100 µM | > 100 µM
